Two compounds from patent publication US20200240995A1, “KDAC VARIANTS AND USES THEREOF” (Max-Planck-Gesellschaft Zur Forderung Der Wissenschaften …, priority 2017, published 2020) can be followed below.

Broadly, the IC50 is the concentration that gives 50% inhibition. Read a high IC50 as weaker potency.

For one experiment, the system named is KDACs. The experiment in a line: FLuc K529ac activation by different KDACs. The format is biochemical. Conditions: purified FLuc K529ac. As for the experimental part:
FIG. 7: FLuc K529ac activation by different KDACs. Sirtuins were used at 20 μg/ml, while HDAC8 concentration was 10 mg/ml with tenfold higher FLuc K529ac. All error bars are standard deviations of triplicates.
It was tested whether purified FLuc K529ac can be used to quantify KDAC activity by incubating it with various different KDACs (FIG. 7). Prior to treatment with a KDAC the enzyme produced very little bioluminescence. After incubation with various KDACs the luminescence increased up to 130 fold.

For the next experiment, the target named is T1, SirT2 (Homo sapiens, UniProt Q8IXJ6).
T1 sequence (Q8IXJ6 56-356): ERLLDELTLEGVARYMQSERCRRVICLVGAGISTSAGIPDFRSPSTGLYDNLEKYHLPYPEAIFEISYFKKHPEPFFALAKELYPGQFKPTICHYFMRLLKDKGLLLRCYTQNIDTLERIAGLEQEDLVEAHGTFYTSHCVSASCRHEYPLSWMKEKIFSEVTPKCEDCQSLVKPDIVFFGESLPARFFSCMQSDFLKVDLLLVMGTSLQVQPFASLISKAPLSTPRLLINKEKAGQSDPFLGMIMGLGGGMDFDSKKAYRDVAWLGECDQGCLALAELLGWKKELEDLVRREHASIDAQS
Put plainly: FLuc K529ac-based KDAC assay, inhibition or activation of SirT2 deacetylation.

Experimental for SirT2: Typical endpoint deacetylation reactions contain: 30 nM Firefly Luciferase K529ac, 1 mM NAD^+, 1 μg/ml KDAC in 50 μl KDAC buffer (25 mM Tris/HCl pH 8.0, 137 mM NaCl, 2.7 mM KCl, 1 mM MgCl2, 1 mM DTT, 1 mg/ml BSA). The reactions are incubated for 1 h at 25° C. Luciferase activity is then assayed by addition of an equal volume of a mixture containing 40 mM Tricine, 200 μM EDTA, 7.4 mM MgSO4, 2 mM NaHCO3, 34 mM DTT, 0.5 mM ATP and 0.5 mM luciferin, pH 7.8^4. Luminescence is quantified using a FluoStar Omega Microplate Reader (BMG Labtech).
The continuous FLuc-based KDAC assay was set up by mixing all the components of the endpoint assay immediately. Usually NAD^+ was omitted initially and added from a 20-fold stock solution after 5 min preincubation to start the reaction. Luminescence was recorded every minute over a period of 30 min. KDAC activity was calculated from the slope of the linear phase of the reaction.
The effect of the compounds was analyzed at 10 μM on SirT2 activity using the FLuc K529ac assay in endpoint format.

“FLuc K529ac: Firefly luciferase with N(ε)-acetyl-lysine in place of K529, reporter substrate for KDACs”: the “Luminescence increase after incubation with various KDACs” value in the experiment on KDACs is recorded as “up to 130 fold”.
Turning to `Oc1cc(O)cc(/C=C/c2ccc(O)c(O)c2)c1` [Compound 2, piceatannol], half-maximal inhibition on SirT2 (IC50) required 5.5 µM.
